From patent publication US9890138B2, “Diaminopyrimidine derivatives and processes for the preparation thereof” (YUHAN CORPORATION, priority 2011, dated 2018) come the findings set out here.

As a reminder, the EC50 is the concentration needed to bring the measured effect to its halfway point.

T1 sequence (Q13639 1-387 isoform Q13639-2): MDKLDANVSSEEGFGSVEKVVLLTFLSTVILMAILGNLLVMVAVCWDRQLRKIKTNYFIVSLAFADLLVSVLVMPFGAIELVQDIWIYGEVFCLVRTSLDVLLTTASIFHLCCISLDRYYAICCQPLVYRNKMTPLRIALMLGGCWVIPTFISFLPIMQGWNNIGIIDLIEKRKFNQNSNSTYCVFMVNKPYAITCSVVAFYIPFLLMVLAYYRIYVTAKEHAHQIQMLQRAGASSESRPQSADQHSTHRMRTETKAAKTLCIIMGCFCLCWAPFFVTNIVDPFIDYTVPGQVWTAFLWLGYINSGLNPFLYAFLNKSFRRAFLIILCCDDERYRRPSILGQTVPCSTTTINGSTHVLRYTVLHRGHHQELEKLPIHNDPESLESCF

This assay has as its target T1, human 5-HT4(a) (Homo sapiens, UniProt Q13639).
T1 construct: host or cells: GeneBlAzer HTR4-CRE-bla CHO-K1 cells
The experiment in a line: Evaluation of agonistic activity in CHO-K1 cells expressing human 5-HT4(a) (GeneBlAzer HTR4-CRE-bla CHO-K1, beta-lactamase reporter). The assay is classed as cell-based. Conditions: CHO-K1 cells stably expressing human 5-HT4(a). A digest of the protocol: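 GeneBlAzer HTR4-CRE-bla CHO-K1 cells, 10^4/well overnight, exposed 5 h to compounds at 8 concentrations in medium with 1% DMSO in the added solution. β-lactamase substrate 2 h in dark; 410 nm excitation, 465/535 nm emission ratio; EC50 by non-linear regression.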
On to `CCCc1cc(N2CC[C@H](NC(=O)C(C)(C)O)C2)nc(Nc2cccc(C#N)c2)n1` [Example 153, (S)-N-{1-[2-(3-cyanophenylamino)-6-propylpyrimidin-4-yl]pyrrolidin-3-yl}-2-hydroxy-2-methylpropanamide], for which the EC50 is 0.228 nM.

Regarding `CCCc1cc(N2CC[C@H](NC(=O)CCc3ccc(O)cc3)C2)nc(Nc2cccc(C#N)c2)n1` [Example 155, (S)-N-{1-[2-(3-cyanophenylamino)-6-propylpyrimidin-4-yl]pyrrolidin-3-yl}-3-(4-hydroxyphenyl)propanamide], a half-maximal response (EC50) required 0.417 nM.

For the compound `CCCc1cc(N2CC[C@H](NC(=O)CCC(C)=O)C2)nc(Nc2cccc(C#N)c2)n1` [Example 156, (S)-N-{1-[2-(3-cyanophenylamino)-6-propylpyrimidin-4-yl]pyrrolidin-3-yl}-4-oxopentanamide], the EC50 worked out at 0.219 nM.

On to `CCCc1cc(N2CC[C@H](NC(=O)CO)C2)nc(Nc2cccc(C#N)c2)n1` [Example 157, (S)-N-{1-[2-(3-cyanophenylamino)-6-propylpyrimidin-4-yl]pyrrolidin-3-yl}-2-hydroxyacetamide], for which the EC50 was found to be 0.044 nM.

The compound `CCCc1cc(N2CC[C@H](NC(=O)COCc3ccccc3)C2)nc(Nc2cccc(C#N)c2)n1` [Example 158] had an EC50 of 0.436 nM.

`CCCc1cc(N2CC[C@H](NC(=O)CN(C)C)C2)nc(Nc2cccc(C#N)c2)n1` [Example 160] displayed an EC50 of 0.121 nM. This EC50 lies about 3.6-fold lower than the previous one.

`CCCc1cc(N2CC[C@H](NC(=O)CCN(C)C)C2)nc(Nc2cccc(C#N)c2)n1` [Example 161] came in with an EC50 of 0.119 nM.

`CCCc1cc(N2CC[C@H](NC(=O)CCCN(C)C)C2)nc(Nc2cccc(C#N)c2)n1` [Example 162]: the EC50 came to 0.193 nM.

Compound `CCCc1cc(N2CC[C@H](NC(=O)CNC(=O)OCc3ccccc3)C2)nc(Nc2cccc(C#N)c2)n1` [Example 165, (S)-benzyl 2-{1-[2-(3-cyanophenylamino)-6-propylpyrimidin-4-yl]pyrrolidin-3-ylamino}-2-oxoethylcarbamate] came in with an EC50 of 0.2 nM.

The compound `CCCc1cc(N2CC[C@H](NC(=O)CCCNC(=O)OC(C)(C)C)C2)nc(Nc2cccc(C#N)c2)n1` [Example 166] gave an EC50 of 0.103 nM.

On to `CCCc1cc(N2CC[C@H](NC)C2)nc(Nc2ccc(C)c(C#N)c2)n1` [Example 170], for which it took 0.0013 nM to reach a half-maximal effect (EC50). This EC50 is about 79-fold lower than that of the compound before.

Turning to `CCCc1cc(N2CCC(NCC)C2)nc(Nc2ccc(C)c(C#N)c2)n1` (stereo not drawn) [Example 173], the EC50 was found to be 0.004 nM.

`CCCc1cc(N2CC[C@H](NC)C2)nc(Nc2ccc(N)c([N+](=O)[O-])c2)n1` [Example 175] returned an EC50 of 0.229 nM.

Regarding `CCCc1cc(N2CC[C@H](NCC)C2)nc(Nc2ccc(N)c([N+](=O)[O-])c2)n1` [Example 176], it took 0.018 nM to reach a half-maximal effect (EC50). This EC50 is about 13-fold lower than that of the compound before.

Take `CCCc1cc(N2CC[C@H](NCC)C2)nc(Nc2ccc(N)c([N+](=O)[O-])c2)n1` [Example 177]: the half-maximal effective concentration (EC50) stood at 0.02 nM.

For the compound `CCCc1cc(N2CC[C@H](NC)C2)nc(Nc2ccc(F)c(C#N)c2)n1` [Example 180], a half-maximal effect (EC50) was put at 0.0087 nM. Against the preceding compound, the EC50 is about 2.3-fold lower.

As for `CCCc1cc(N2CCC(N)C2)nc(Nc2ccc(F)c(C#N)c2)n1` (stereo not drawn) [Example 182], the response was half-maximal at 0.036 nM (EC50).

In turn, `CCCc1cc(N2CCC[C@H]2CO)nc(Nc2ccc3cc[nH]c3c2)n1` [Example 185] displayed a concentration giving a half-maximal response (EC50) of 0.015 nM.

`CCCc1cc(N2CCC[C@@H]2CO)nc(Nc2ccc3cc[nH]c3c2)n1` [Example 186] displayed an EC50 of 0.382 nM. This EC50 lies about 25-fold higher than the previous one.

In the case of `CCCc1cc(N2CCCC2CO)nc(Nc2ccc3cc[nH]c3c2)n1` (stereo not drawn) [Example 187], the EC50 was determined as 0.037 nM.

In the case of `CCCc1cc(N2CCC[C@H]2COC)nc(Nc2ccc3cc[nH]c3c2)n1` [Example 189], the EC50 stood at 0.028 nM.

The compound `CCCc1cc(N2CCCC2C)nc(Nc2ccc3cc[nH]c3c2)n1` (stereo not drawn) [Example 190] had an EC50 of 0.05 nM.

`CCCc1cc(N2CCC[C@H]2C(=O)OC)nc(Nc2ccc3cc[nH]c3c2)n1` [Example 191] came in with an EC50 of 0.29 nM.

`CCCc1cc(N2CCC(NC(C)=O)C2)nc(Nc2ccc3cc[nH]c3c2)n1` (stereo not drawn) [Example 192] yielded an EC50 of 0.02 nM.
